{"source": "ChEMBL document CHEMBL1125127", "about": "(J Med Chem, 1990)"}
{"target": "Beta-1 adrenergic receptor (Canis familiaris)", "experiment": "not given", "details": "not given", "units": {"IC50": "µM"}}
{"smiles": "Cc1ccccc1OCC(O)CN1CCN(c2ccc(NS(C)(=O)=O)cc2)CC1", "note": "(stereo unspecified)", "IC50": 3.3}
{"system": "Canis familiaris", "experiment": "Percent change in heart rate (HR) from control at active dose 10-30 mg/kg administered intraduodenally", "details": "not given", "units": {"Change": "%"}}
{"smiles": "CS(=O)(=O)Nc1ccc(C(=O)N2CCN(CC(O)COc3cccc4ccccc34)CC2)cc1", "note": "(stereo unspecified)", "Change": -25}
{"smiles": "COCCc1ccc(OCC(O)CN2CCN(c3ccc(NS(C)(=O)=O)cc3)CC2)cc1", "note": "(stereo unspecified)", "Change": -12}
{"target": "T1, Beta-2 adrenergic receptor (Canis lupus familiaris, UniProt P54833)", "T1 sequence (P54833 whole entry)": "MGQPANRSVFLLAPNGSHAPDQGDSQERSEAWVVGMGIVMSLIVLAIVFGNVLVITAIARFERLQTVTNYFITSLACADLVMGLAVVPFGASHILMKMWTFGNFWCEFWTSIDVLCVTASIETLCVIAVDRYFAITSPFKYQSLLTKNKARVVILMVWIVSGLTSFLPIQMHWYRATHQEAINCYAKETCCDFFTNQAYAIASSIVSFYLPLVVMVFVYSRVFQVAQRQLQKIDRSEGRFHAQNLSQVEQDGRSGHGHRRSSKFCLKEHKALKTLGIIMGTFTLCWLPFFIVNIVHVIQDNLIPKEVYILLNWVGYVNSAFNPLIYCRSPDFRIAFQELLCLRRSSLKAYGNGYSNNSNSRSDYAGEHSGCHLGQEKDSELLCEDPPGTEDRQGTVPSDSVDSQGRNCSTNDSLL", "experiment": "not given", "details": "not given", "units": {"IC50": "µM"}}
{"smiles": "Cc1cccc(OCC(O)CN2CCN(c3ccc(NS(C)(=O)=O)cc3)CC2)c1", "note": "(stereo unspecified)", "IC50": 49.3}
{"smiles": "Cc1ccccc1OCC(O)CN1CCN(c2ccc(NS(C)(=O)=O)cc2)CC1", "note": "(stereo unspecified)", "IC50": 6.6}
{"system": "not listed separately", "experiment": "Ratio of number of active animals to number of treated at dose 1.0-10 mg/kg administered intraperitoneally in PES model in anesthetized dogs; 3/5", "assay_type": "functional", "details": "not given"}
{"smiles": "Cc1cccc(OCC(O)CN2CCN(c3ccc(NS(C)(=O)=O)cc3)CC2)c1", "note": "(stereo unspecified)", "No. effective": 3}
{"system": "not listed separately", "experiment": "Ratio of number of active animals to number of treated at dose 1.0-10 mg/kg administered intravenously in PES model in conscious dogs; 5/6", "details": "not given"}
{"smiles": "Cc1ccccc1OCC(O)CN1CCN(c2ccc(NS(C)(=O)=O)cc2)CC1", "note": "(stereo unspecified)", "No. effective": 5}
{"system": "not listed separately", "experiment": "Ratio of number of active animals to number of treated in anesthetized dogs; No of animals tested=2", "assay_type": "functional", "details": "not given"}
{"smiles": "CS(=O)(=O)Nc1ccc(CNCC(O)COc2ccccc2)cc1", "note": "(stereo unspecified)", "Ratio": 0}
{"target": "T1, Beta-2 adrenergic receptor", "experiment": "Beta2-receptor selectivity in canine lung tissue in anesthetized dogs", "assay_type": "functional", "details": "not given", "units": {"IC50": "µM"}}
{"smiles": "OC(CNCCOc1ccc(-n2ccnc2)cc1)COc1ccccc1", "note": "(stereo unspecified)", "IC50": 0.28}
{"smiles": "COCCc1ccc(OCC(O)CNCCOc2ccc(-n3ccnc3)cc2)cc1", "note": "(stereo unspecified)", "IC50": 4.5}
{"system": "Canis familiaris", "experiment": "Percent change in blood pressure (BP) from control at active dose 10-30 mg/kg administered intraperitoneally in anesthetized dogs", "assay_type": "functional, Canis lupus familiaris", "details": "not given", "units": {"Change": "%"}}
{"smiles": "CS(=O)(=O)Nc1ccc(C(=O)N2CCN(CC(O)COc3cccc4ccccc34)CC2)cc1", "note": "(stereo unspecified)", "Change": 5}
{"smiles": "COCCc1ccc(OCC(O)CN2CCN(c3ccc(NS(C)(=O)=O)cc3)CC2)cc1", "note": "(stereo unspecified)", "Change": 9}
{"system": "Canis familiaris", "experiment": "Percent change in FRP from control at active dose 10 mg/kg administered intraperitoneally in anesthetized dogs", "assay_type": "functional, Canis lupus familiaris", "details": "route intraperitoneal", "units": {"Change": "%"}}
{"smiles": "Cc1cccc(OCC(O)CN2CCN(c3ccc(NS(C)(=O)=O)cc3)CC2)c1", "note": "(stereo unspecified)", "Change": 17}
{"smiles": "Cc1ccccc1OCC(O)CN1CCN(c2ccc(NS(C)(=O)=O)cc2)CC1", "note": "(stereo unspecified)", "Change": 13}
{"system": "not listed separately", "experiment": "Ratio of number of active animals to number of treated at dose 1.0 mg/kg administered intraperitoneally in Epinephrine-induced model in anesthetized dogs; 4/8", "assay_type": "functional", "details": "route intraperitoneal"}
{"smiles": "Cc1ccccc1OCC(O)CN1CCN(c2ccc(NS(C)(=O)=O)cc2)CC1", "note": "(stereo unspecified)", "No. effective": 4}
{"target": "Adrenergic receptor beta (Canis lupus familiaris)", "experiment": "Tested for beta-receptor binding inhibition from canine ventricular tissue, using [3H]dihydroalprenolol as the radioligand in anesthetized dogs", "details": "not given", "units": {"IC50": "µM"}}
{"smiles": "OC(CNCCOc1ccc(-n2ccnc2)cc1)COc1ccccc1", "note": "(stereo unspecified)", "IC50": 0.04}
{"system": "Canis familiaris", "experiment": "Concentration that causes a 20% increase in APD95 (action potential duration at 95% repolarization) from control value in anesthetized dogs", "assay_type": "functional, Canis lupus familiaris", "details": "not given", "units": {"C20": "µM", "C20 APD95": "µM"}}
{"smiles": "CS(=O)(=O)Nc1ccc(C(=O)N2CCN(CC(O)COc3cccc4ccccc34)CC2)cc1", "note": "(stereo unspecified)", "C20": 0.5}
{"smiles": "CS(=O)(=O)Nc1ccc(CNCC(O)COc2ccccc2)cc1", "note": "(stereo unspecified)", "C20": "<1"}
{"smiles": "OC(CNCCOc1ccc(-n2ccnc2)cc1)COc1ccccc1", "note": "(stereo unspecified)", "C20 APD95": 8.8}
{"smiles": "Cc1cccc(OCC(O)CN2CCN(c3ccc(NS(C)(=O)=O)cc3)CC2)c1", "note": "(stereo unspecified)", "C20": "<1"}
{"smiles": "COCCc1ccc(OCC(O)CNCCOc2ccc(-n3ccnc3)cc2)cc1", "note": "(stereo unspecified)", "C20 APD95": 14.8}
{"smiles": "Cc1ccccc1OCC(O)CN1CCN(c2ccc(NS(C)(=O)=O)cc2)CC1", "note": "(stereo unspecified)", "C20": "<4.5"}
{"smiles": "COCCc1ccc(OCC(O)CN2CCN(c3ccc(NS(C)(=O)=O)cc3)CC2)cc1", "note": "(stereo unspecified)", "C20": 3.2}
{"target": "Beta adrenergic receptor (Canis familiaris)", "experiment": "not given", "details": "not given", "units": {"IC50": "µM"}}
{"smiles": "CS(=O)(=O)Nc1ccc(C(=O)N2CCN(CC(O)COc3cccc4ccccc34)CC2)cc1", "note": "(stereo unspecified)", "IC50": 30.9}
{"smiles": "CS(=O)(=O)Nc1ccc(CNCC(O)COc2ccccc2)cc1", "note": "(stereo unspecified)", "IC50": 2.9}
{"smiles": "Cc1ccccc1OCC(O)CN1CCN(c2ccc(NS(C)(=O)=O)cc2)CC1", "note": "(stereo unspecified)", "IC50": 2.3}
{"smiles": "COCCc1ccc(OCC(O)CN2CCN(c3ccc(NS(C)(=O)=O)cc3)CC2)cc1", "note": "(stereo unspecified)", "IC50": 109}
{"system": "Canis familiaris", "experiment": "Percent change in blood pressure (BP) from control at active dose 1.0-10 mg/kg administered intraperitoneally in anesthetized dogs", "assay_type": "functional, Canis lupus familiaris", "details": "not given", "units": {"Change": "%"}}
{"smiles": "Cc1cccc(OCC(O)CN2CCN(c3ccc(NS(C)(=O)=O)cc3)CC2)c1", "note": "(stereo unspecified)", "Change": -1}
{"smiles": "Cc1ccccc1OCC(O)CN1CCN(c2ccc(NS(C)(=O)=O)cc2)CC1", "note": "(stereo unspecified)", "Change": 13}
{"system": "Canis familiaris", "experiment": "Percent change in heart rate (HR) from control at active dose 1.0-10 mg/kg administered intraperitoneally in anesthetized dogs", "assay_type": "functional, Canis lupus familiaris", "details": "not given", "units": {"Change": "%"}}
{"smiles": "Cc1cccc(OCC(O)CN2CCN(c3ccc(NS(C)(=O)=O)cc3)CC2)c1", "note": "(stereo unspecified)", "Change": 18}
{"smiles": "Cc1ccccc1OCC(O)CN1CCN(c2ccc(NS(C)(=O)=O)cc2)CC1", "note": "(stereo unspecified)", "Change": -3}
{"system": "not listed separately", "experiment": "Ratio of number of active animals to number of treated at dose 10-30 mg/kg administered intraperitoneally in anesthetized dogs; No of animals tested=2", "assay_type": "functional", "details": "not given"}
{"smiles": "CS(=O)(=O)Nc1ccc(C(=O)N2CCN(CC(O)COc3cccc4ccccc34)CC2)cc1", "note": "(stereo unspecified)", "No. effective": 2}
{"system": "Canis familiaris", "experiment": "Maximum change in […] from control value in anesthetized dogs; 10 uM.", "assay_type": "functional, Canis lupus familiaris", "details": "not given", "units": {"Max delta": "%"}}
{"smiles": "CS(=O)(=O)Nc1ccc(C(=O)N2CCN(CC(O)COc3cccc4ccccc34)CC2)cc1", "note": "(stereo unspecified)", "Max delta": 55}
{"smiles": "CS(=O)(=O)Nc1ccc(CNCC(O)COc2ccccc2)cc1", "note": "(stereo unspecified)", "Max delta": 40}
{"smiles": "OC(CNCCOc1ccc(-n2ccnc2)cc1)COc1ccccc1", "note": "(stereo unspecified)", "Max delta": 21}
{"smiles": "Cc1cccc(OCC(O)CN2CCN(c3ccc(NS(C)(=O)=O)cc3)CC2)c1", "note": "(stereo unspecified)", "Max delta": 55}
{"smiles": "Cc1ccccc1OCC(O)CN1CCN(c2ccc(NS(C)(=O)=O)cc2)CC1", "note": "(stereo unspecified)", "Max delta": 53}
{"smiles": "COCCc1ccc(OCC(O)CN2CCN(c3ccc(NS(C)(=O)=O)cc3)CC2)cc1", "note": "(stereo unspecified)", "Max delta": 76}
{"system": "not listed separately", "experiment": "Ratio of number of active animals to number of treated at dose 10 mg/kg administered intraperitoneally in anesthetized dogs; No of animals tested=2", "assay_type": "functional", "details": "route intraperitoneal"}
{"smiles": "Cc1ccccc1OCC(O)CN1CCN(c2ccc(NS(C)(=O)=O)cc2)CC1", "note": "(stereo unspecified)", "Ratio": 2}
{"system": "Canis familiaris", "experiment": "Concentration at which maximum change in […] was observed from control value in anesthetized dogs; The maximum observed change APD95 from control value and concentration at 100 uM when this occurred", "assay_type": "functional, Canis lupus familiaris", "details": "not given", "units": {"Max delta": "%"}}
{"smiles": "COCCc1ccc(OCC(O)CNCCOc2ccc(-n3ccnc3)cc2)cc1", "note": "(stereo unspecified)", "Max delta": 89}
{"system": "Canis familiaris", "experiment": "Percent change in heart rate (HR) from control at active dose 10 mg/kg administered intraduodenally", "details": "route intraduodenal", "units": {"Change": "%"}}
{"smiles": "Cc1cccc(OCC(O)CN2CCN(c3ccc(NS(C)(=O)=O)cc3)CC2)c1", "note": "(stereo unspecified)", "Change": -21}
{"system": "not listed separately", "experiment": "Ratio of number of active animals to number of treated administered intraperitoneally in Epinephrine-induced model in anesthetized dogs; 4/8", "details": "route intraperitoneal"}
{"smiles": "Cc1ccccc1OCC(O)CN1CCN(c2ccc(NS(C)(=O)=O)cc2)CC1", "note": "(stereo unspecified)", "Ratio": 0.5}
{"system": "Canis familiaris", "experiment": "Percent change in FRP from control at active dose 10-30 mg/kg administered intraperitoneally in anesthetized dogs", "assay_type": "functional, Canis lupus familiaris", "details": "not given", "units": {"Change": "%"}}
{"smiles": "CS(=O)(=O)Nc1ccc(C(=O)N2CCN(CC(O)COc3cccc4ccccc34)CC2)cc1", "note": "(stereo unspecified)", "Change": 19}
{"smiles": "COCCc1ccc(OCC(O)CN2CCN(c3ccc(NS(C)(=O)=O)cc3)CC2)cc1", "note": "(stereo unspecified)", "Change": 15}
{"system": "not listed separately", "experiment": "Ratio of number of active animals to number of treated at dose 10-30 mg/kg administered intraperitoneally in anesthetized dogs; No of animals tested=3", "assay_type": "functional", "details": "not given"}
{"smiles": "COCCc1ccc(OCC(O)CN2CCN(c3ccc(NS(C)(=O)=O)cc3)CC2)cc1", "note": "(stereo unspecified)", "No. effective": 3}
{"system": "Canis familiaris", "experiment": "Percent change in FRP from control at active dose 1.0-10 mg/kg administered intraperitoneally", "assay_type": "functional, Canis lupus familiaris", "details": "not given", "units": {"Change": "%"}}
{"smiles": "Cc1cccc(OCC(O)CN2CCN(c3ccc(NS(C)(=O)=O)cc3)CC2)c1", "note": "(stereo unspecified)", "Change": 13}
{"smiles": "Cc1ccccc1OCC(O)CN1CCN(c2ccc(NS(C)(=O)=O)cc2)CC1", "note": "(stereo unspecified)", "Change": 8}
{"system": "Canis familiaris", "experiment": "Percent change in blood pressure (BP) from control at active dose 10 mg/kg administered intraperitoneally in anesthetized dogs", "assay_type": "functional, Canis lupus familiaris", "details": "route intraperitoneal", "units": {"Change": "%"}}
{"smiles": "Cc1cccc(OCC(O)CN2CCN(c3ccc(NS(C)(=O)=O)cc3)CC2)c1", "note": "(stereo unspecified)", "Change": 13}
{"smiles": "Cc1ccccc1OCC(O)CN1CCN(c2ccc(NS(C)(=O)=O)cc2)CC1", "note": "(stereo unspecified)", "Change": 11}
{"system": "Canis familiaris", "experiment": "Percent change in heart rate (HR) from control at active dose 10 mg/kg administered intraduodenally", "details": "route intraduodenal", "remark": "another data set of the same source", "units": {"Change": "%"}}
{"smiles": "Cc1ccccc1OCC(O)CN1CCN(c2ccc(NS(C)(=O)=O)cc2)CC1", "note": "(stereo unspecified)", "Change": -11}
{"target": "Beta-1 adrenergic receptor (Canis lupus familiaris)", "experiment": "Tested for beta1-receptor selectivity in canine cardiac tissue in anesthetized dogs", "details": "not given", "units": {"IC50": "µM"}}
{"smiles": "OC(CNCCOc1ccc(-n2ccnc2)cc1)COc1ccccc1", "note": "(stereo unspecified)", "IC50": 0.04}
